ChEMBL document CHEMBL1122738, “A cyclic angiotensin antagonist: [1,8-cysteine]angiotensin II” (1984)
Positions of bridges follow the written chain, without caps; N, C: chain ends. Residues, ends and D or L forms follow the SMILES beside them. Chains are numbered I, II in the order given.

Species: Rattus norvegicus
Test: Minimum effective concentration required to abolish the response to an ED75 dose of ANG II (10e-8 M) in the isolated rat uterus assay
Assay type: functional
Settings: read-out: MEC

SMILES	minimal effective concentration [µM]
CC[C@H](C)[C@H](NC(=O)[C@H](Cc1ccc(O)cc1)NC(=O)[C@@H](NC(=O)[C@H](CCCN=C(N)N)NC(=O)[C@@H](N)CSCNC(C)=O)C(C)C)C(=O)N[C@@H](Cc1c[nH]cn1)C(=O)N1CCC[C@H]1C(=O)N[C@@H](CSCNC(C)=O)C(=O)O	0.24
CC[C@H](C)[C@H](NC(=O)[C@@H]1CCCN1C(=O)[C@H](Cc1c[nH]cn1)NC(=O)[C@@H](NC(=O)[C@H](Cc1ccc(O)cc1)NC(=O)[C@@H](NC(=O)[C@H](CCCN=C(N)N)NC(=O)CNC)C(C)C)[C@@H](C)CC)C(=O)O	0.021
CC[C@H](C)[C@@H]1NC(=O)[C@H](Cc2ccc(O)cc2)NC(=O)[C@H](C(C)C)NC(=O)[C@H](CCCN=C(N)N)NC(=O)[C@@H](N)CSSC[C@@H](C(=O)O)NC(=O)[C@@H]2CCCN2C(=O)[C@H](Cc2c[nH]cn2)NC1=O (H-CRVYIHPC-OH; disulfide 1-8)	3.3
CC[C@H](C)[C@@H]1NC(=O)[C@H](Cc2ccc(O)cc2)NC(=O)[C@H](C(C)C)NC(=O)[C@H](CCCN=C(N)N)NC(=O)[C@@H](N)CSSC[C@H](N)C(=O)N[C@@H](CCCN=C(N)N)C(=O)N[C@@H](C(C)C)C(=O)N[C@@H](Cc2ccc(O)cc2)C(=O)N[C@@H]([C@@H](C)CC)C(=O)N[C@@H](Cc2c[nH]cn2)C(=O)N2CCC[C@H]2C(=O)N[C@H](C(=O)O)CSSC[C@@H](C(=O)O)NC(=O)[C@@H]2CCCN2C(=O)[C@H](Cc2c[nH]cn2)NC1=O (I: H-CRVYIHPC-OH / II: H-CRVYIHPC-OH; disulfide I:1-II:1, I:8-II:8)	9.6
